Columns and labels:
A549 (Lung) cells = test: Sulforhodamine B (SRB) assay, A549; assay type: cell-based; details: Homo sapiens; for CC50: A549, 48 h, read-out: LC50; for GI50 / IC (TGI): A549 Lung, SRB, 48 h
Description: (§1) Sulforhodamine B (SRB) assays were performed according to standard National Cancer Institute Guidelines. Briefly, human tumor cells from different cancer panels were seeded into 96 well plates in […] (plating densities ranging from 5-40,000 cells/well depending on the doubling time of individual cell lines) in serum-containing media for twenty-four hours prior to the addition of the compounds to be assayed. After 24 hours, one plate of each cell line was fixed in situ with trichloroacetic acid (TCA). The fixed slides were used to determine the cell population for each cell line at the time of drug addition (Tz). Each compound to be tested was solubilized in dimethyl sulfoxide (DMSO) and the desired concentration was then added to the medium and diluted serially 1:10 to provide a total of five or ten drug concentrations plus control (in a final volume of 200 μL). The starting dose before any dilution was 100 uM for all compounds.
(§2) Following drug addition, each culture was incubated for forty-eight hours. The assay was terminated with the addition of cold TCA. The supernatant was discarded, and the plates were washed with tap water and air dried. SRB solution was then added to each well. After staining, the bound stain was solubilized and the absorbance was read on an automated plate reader at a wavelength of 515 nm.
(§3) Using the absorbance measurements [time zero, (Tz), control growth, (C), and test growth in the presence of drug at the ten concentration levels (Ti)], the percentage growth was calculated at each of the drug concentrations levels. Percentage growth inhibition was calculated as:
(§4) [(Ti−Tz)/(C−Tz)]×100 for concentrations for which Ti>/=Tz
(§5) [(Ti−Tz)/Tz]×100 for concentrations for which Ti<Tz.
(§6) Three dose response parameters were calculated for each experimental agent. Growth inhibition of 50% (GI50) was calculated from [(Ti−Tz)/(C−Tz)]×100=50, which was the drug concentration resulting in a 50% reduction in the net protein increase (as measured by SRB staining) in control cells during the drug. The drug concentration resulting in total growth inhibition (TGI) was calculated from Ti=Tz. The LC50 (concentration of drug resulting in a 50% reduction in the measured protein at the end of the drug treatment as compared to that at the beginning) indicating a net loss of cells following treatment was calculated from [(Ti−Tz)/Tz]×100=−50.
(§7) Values were calculated for each of these three parameters when the level of activity was reached; however, if the effect was not reached or was exceeded, the value for that parameter was expressed as greater or less than the maximum or minimum concentration tested.

PC3 (Prostate) cells = test: Sulforhodamine B (SRB) assay, PC3; assay type: cell-based; details: Homo sapiens, Prostate cell, 48 h; for CC50: read-out: LC50; for GI50 / IC (TGI): PC3 Prostate, SRB
Description: as §1, §2, §3, §4, §5, §6, §7

SF268 (CNS) cells = test: Sulforhodamine B (SRB) assay, SF268; assay type: cell-based; details: Homo sapiens; for CC50: SF-268, 48 h, read-out: LC50; for GI50 / IC (TGI): SF-268, SF268 CNS, SRB, 48 h
Description: as §1, §2, §3, §4, §5, §6, §7

DU145 (Prostate) cells = test: MTT cell proliferation/viability assay, DU145; assay type: cell-based; details: Homo sapiens, DU-145, 72 h
Description: Cell proliferation/viability was assessed by the MTT [3-(4,5-dimethylthiazol-2-yl)-2,5-diphenyltetrazolium bromide] assay, which is commercially available (Sigma, St. Louis, Mo.). Cells were cultured in 96-well plates for twenty-four hours (7-10.000 cells/well) and incubated with various concentrations of the different compounds—as indicated in the Figures—in serum-containing medium (or left untreated) for seventy-two hours. At the end of incubation, the medium was aspirated and MTT dissolved in RPMI 1640 w/o phenol red was added to each well to a final concentration of 0.25 mg/ml. After four hours incubation in the dark (37° C., 5% CO2) the supernatant was discarded. The converted dye (blue formazan crystals) was solubilized by adding 200 μl dimethylsulfoxide to each well. Absorbance was measured at 550 nm with reference at 655 nm using a spectrophotometer with the respective filters. All assays were performed in triplicate.
The effect of the different compounds on the proliferation and viability of two cancer cell lines (DU145/prostate and CAKI/renal) was tested through quantitative (4,5-dimethylthiazol-2-yl)-2,5-diphenyltetrazolium bromide (MTT) assays.

HCT116 (Colon) cells = test: Sulforhodamine B (SRB) assay, HCT116; assay type: cell-based, human; details: for CC50 / GI50: Homo sapiens; for CC50: HCT-116, 48 h, read-out: LC50; for GI50: HCT-116
Description: as §1, §2, §3, §4, §5, §6, §7

[1] = tested on: NCI-ADR-RES (Ovarian) cells; test: Sulforhodamine B (SRB) assay, NCI-ADR-RES (multidrug resistant); assay type: cell-based, human; details: 48 h; for CC50 / GI50: Homo sapiens; for CC50: NCI/ADR-RES, read-out: LC50
Description: as §1, §2, §3, §4, §5, §6, §7

[2] = tested on: 7 different cell lines (lung, ovarian, prostate, CNS, breast, colon); test: SRB assays across 7 cell lines; assay type: cell-based, human; details: for viability and/or cell proliferation of cell lines: cell lines representative of lung, breast, CNS, prostate, ovarian, colon and renal neoplasias
Description: as §1, §2, §3, §4, §5, §6, §7
SRB provides a colorimetric measure of a compound's anti-cancer activity. SRB assays were performed with compounds of the invention in 7 different cell lines, which represent six different tumor panels (lung, ovarian, prostate, CNS, breast, colon).

H460 (Lung) cells = test: Sulforhodamine B (SRB) assay, H460; assay type: cell-based, human; details: for CC50 / GI50: Homo sapiens; for CC50: NCI-H460, 48 h, read-out: LC50; for GI50: NCI-H460
Description: as §1, §2, §3, §4, §5, §6, §7

MCF7 (Breast) cells = test: Sulforhodamine B (SRB) assay, MCF7; assay type: cell-based, human; details: for CC50 / GI50: Homo sapiens; for CC50: MCF7, 48 h, read-out: LC50
Description: as §1, §2, §3, §4, §5, §6, §7

[3] = target: Na+/K+-ATPase (Adenosine 5′-Triphosphatase isolated from porcine cerebral cortex); test: Na+/K+-ATPase inhibitory activity, colorimetric Adenosine 5′-Triphosphatase Enzymatic Assay (Sigma); assay type: biochemical; details: enzyme from porcine cerebral cortex, 0.5 units/ml
Description: The compound inhibitory effect on ATPase activity was assessed in vitro using the colorimetric Adenosine 5′-Triphosphatase Enzymatic Assay of Sigma (St. Louis, Mo.) according to the manufacturer's instructions. This assay utilizes Adenosine 5′-Triphosphatase isolated from porcine cerebral cortex. Each reaction was performed in a final volume of […] using 0.5 units/ml enzyme in the presence of the different inhibitors. […] IC50 values were determined using the Origin® program software (OriginLab, Northampton, Mass.).

CON=C1CC2C(CC[C@]3(C)C(=O)CCC23)[C@@]2(CO)CCC(=NOC3CCNC3)CC12 (stereo in doubt) [Compound 30, (5S,10S,13S)-10-(hydroxymethyl)-6-methoxy-imino-13-methyl-3-((S)-pyrrolidin-3-yloxyimino)-tetradecahydro-14H-cyclopenta[a]phenanthrene-17-one]
CC50 (A549 (Lung) cells): 29.6 µM | GI50 (A549 (Lung) cells): 4.07 µM | CC50 (PC3 (Prostate) cells): 75.2 µM | GI50 (PC3 (Prostate) cells): 7.71 µM | IC (TGI) (PC3 (Prostate) cells): 36700 µM | CC50 (SF268 (CNS) cells): 78.4 µM | GI50 (SF268 (CNS) cells): 5.62 µM | IC (TGI) (SF268 (CNS) cells): 25800 µM | IC50 (DU145 (Prostate) cells): 6.7 µM

C=C1CC2C(CC[C@]3(C)C(=O)C(F)CC23)[C@@]2(C)CCC(=NOC3CCNC3)CC12 (stereo partly drawn) [Compound 6, (5S,10R,13S,16R)-16a-fluoro-6-methylene-10,13-dimethyl-3-((R)-pyrrolidin-3-yloxyimino)-tetradecahydro-2H-cyclopenta[a]phenanthren-17(14H)-one]
CC50 (A549 (Lung) cells): 0.053 µM | GI50 (A549 (Lung) cells): 0.005 µM | IC (TGI) (A549 (Lung) cells): 0.008 µM | TGI (HCT116 (Colon) cells; HCT116 Colon, SRB, 48 h): 0.088 µM | CC50 (HCT116 (Colon) cells): 0.728 µM | GI50 (HCT116 (Colon) cells; HCT116 Colon, SRB, 48 h): 0.009 µM | CC50 (PC3 (Prostate) cells): 1.24 µM | GI50 (PC3 (Prostate) cells): 0.003 µM | IC (TGI) (PC3 (Prostate) cells): 0.055 µM | CC50 (SF268 (CNS) cells): 0.071 µM | GI50 (SF268 (CNS) cells): < 0.001 µM | IC (TGI) (SF268 (CNS) cells): 0.02 µM | CC50 [1]: 0.079 µM | GI50 ([1]; NCI-ADR-RES Ovarian, SRB): 0.018 µM | TGI ([1]; NCI-ADR-RES Ovarian, SRB): 0.049 µM | CC50 ([2]; Homo sapiens, read-out: LC50 values): < 1 µM | GI50 ([2]; Homo sapiens, SRB, average over cell lines): < 1 µM | viability and/or cell proliferation of cell lines [2]: reduced the viability and/or cell proliferation | anti-cancer activity in SRB assays ([2]; multiple cell lines): best activity | TGI (H460 (Lung) cells; H460 Lung, SRB, 48 h): 0.008 µM | CC50 (H460 (Lung) cells): 0.053 µM | GI50 (H460 (Lung) cells; H460 Lung, SRB, 48 h): 0.003 µM | CC50 (MCF7 (Breast) cells): 1.28 µM | GI50 (MCF7 (Breast) cells; MCF7 Breast, SRB, 48 h): 0.009 µM | TGI (MCF7 (Breast) cells; MCF7 Breast, SRB, 48 h): 0.082 µM

C[C@]12CCC(=NO[C@H]3CCNC3)C(c3ccccc3)C1CCC1C2CC[C@]2(C)C(=O)CCC12 (stereo partly drawn) [Compound 21, (10R,13S)-10,13-dimethyl-4-phenyl-3-((S)-pyrrolidin-3-yloxyimino)-tetradecahydro-2H-cyclopenta[a]phenanthren-17(14H)-one]
CC50 (A549 (Lung) cells): 45.3 µM | GI50 (A549 (Lung) cells): 4.41 µM | CC50 (PC3 (Prostate) cells): 49.1 µM | GI50 (PC3 (Prostate) cells): 4.46 µM | CC50 (SF268 (CNS) cells): 57.2 µM | GI50 (SF268 (CNS) cells): 4.16 µM | IC (TGI) (SF268 (CNS) cells): 8450 µM | IC50 (DU145 (Prostate) cells): 13.5 µM | IC50 [3]: 19.3 µM | GI50 action in most cell lines ([2]; SRB): single-digit micromolar | viability and/or cell proliferation of cell lines [2]: reduced the viability and/or cell proliferation

C[C@]12CCC3C(CC[C@H]4CC(=NO[C@H]5CCNC5)CC[C@]34CO)C1CCC2=O (stereo partly drawn) [Compound 25, (5S,10R,13S)-10-(hydroxymethyl)-13-methyl-3-((S)-pyrrolidin-3-yloxyimino)-tetradecahydro-2H-cyclopenta[a]phenanthren-17(14H)-one]
CC50 (A549 (Lung) cells): > 100 µM | GI50 (A549 (Lung) cells): 4.81 µM | IC (TGI) (A549 (Lung) cells): 9410 µM | CC50 (PC3 (Prostate) cells): 9.44 µM | GI50 (PC3 (Prostate) cells): 3.89 µM | CC50 (SF268 (CNS) cells): 85.4 µM | GI50 (SF268 (CNS) cells): 5.74 µM | IC (TGI) (SF268 (CNS) cells): 31300 µM | IC50 (DU145 (Prostate) cells): 15 µM | IC50 [3]: 0.525 µM | GI50 action in most cell lines ([2]; SRB): single-digit micromolar | viability and/or cell proliferation of cell lines [2]: reduced the viability and/or cell proliferation | CC50 (H460 (Lung) cells): > 100 µM | GI50 (H460 (Lung) cells; H460 Lung, SRB, 48 h): 4.37 µM | CC50 (MCF7 (Breast) cells): > 100 µM | GI50 (MCF7 (Breast) cells; MCF7 Breast, SRB, 48 h): 6.17 µM

CC1CC2C(CC[C@]3(C)C(=O)C(F)CC23)[C@@]2(C)CCC(=NOC3CCNC3)C=C12 (stereo partly shown) [Compound 86, 16-Fluoro-6,10,13-trimethyl-1,6,7,8,9,10,11,12,13,14,15,16-dodecahydro-2H-cyclopenta[a]phenanthrene-3,17-dione 3-(O-pyrrolidin-3-yl-oxime)]
CC50 (A549 (Lung) cells): 8.05 µM | GI50 (A549 (Lung) cells): 2.45 µM | IC (TGI) (A549 (Lung) cells): 5250 µM | CC50 (HCT116 (Colon) cells): 58.8 µM | GI50 (HCT116 (Colon) cells; HCT116 Colon, SRB, 48 h): 3.71 µM | CC50 (PC3 (Prostate) cells): 72.4 µM | GI50 (PC3 (Prostate) cells): 5.37 µM | IC (TGI) (PC3 (Prostate) cells): 9780 µM | CC50 (SF268 (CNS) cells): 8.11 µM | GI50 (SF268 (CNS) cells): 1.86 µM | IC (TGI) (SF268 (CNS) cells): 4980 µM | CC50 [1]: 48.1 µM | GI50 ([1]; NCI-ADR-RES Ovarian, SRB): 4.13 µM | viability and/or cell proliferation of cell lines [2]: reduced the viability and/or cell proliferation | CC50 (H460 (Lung) cells): 8.07 µM | GI50 (H460 (Lung) cells; H460 Lung, SRB, 48 h): 2.57 µM | CC50 (MCF7 (Breast) cells): 59.3 µM | GI50 (MCF7 (Breast) cells; MCF7 Breast, SRB, 48 h): 4.35 µM

Source: patent US20130303500A1, “COMPOUNDS AND METHODS FOR TREATING NEOPLASIA” (Medexis S.A., priority 2010, published 2013)
